Laboratory results taken from US20250076288A1, “STABILIZED PEPTIDES FOR BIOMARKER DETECTION” (Dana-Farber Cancer Institute, Inc., priority 2018, published 2025).
Bridges are numbered along the chain shown (N, C = ends). Where no end group is shown, it is not given here. [ ]: non-standard residue; d: D form. The star is where a group is joined. Biotin = O=C1N[C@H]2[C@H](CS[C@H]2CCCCC(=O)*)N1; S5 = C=CCCC[C@](C)(N)C(=O)O; Nle = CCCC[C@H](N)C(=O)O

Assays:
actin filaments [1] = assay: Staple scan of TAMRA-tagged stapled Abp140 peptides: actin binding over time by fluorescence microscopy in C2C12 cells; type: cell-based; conditions: C2C12 mouse myoblast cells, TAMRA-tagged peptides (b)-(g) compared
Text: As a proof of concept, hydrocarbon staples were introduced at different locations in a peptide with known binding attributes for a target protein in order to identify stapled peptides with enhanced stability, cell penetrance, and that retain or enhance target binding. As shown in FIG. 1 (row (a)), a peptide composed of 17 amino acids from the N-terminus of the S. cerevisiae Abp 140 protein that binds to actin filaments was chosen for modification. In the native protein, this peptide has an alpha-helical structure that is a recognition motif for actin. At least one all-hydrocarbon staple was introduced at various locations of the peptide to stabilize the alpha-helical recognition motif to produce stapled peptides markers for actin (see rows (b)-(g) in FIG. 1; the location of hydrocarbon staples in the peptide sequence is demarcated by an X, wherein X is(S)-2-(4′-pentenyl)alanine). […] After 3 hours of incubation, cells were washed with PBS to remove extra peptide reagent and fluorescence microscopy was then used to assess actin binding by the peptides, and to determine overall peptide stability. […] The stapled peptide that retained actin binding over the longest period of time, as determined by fluorescence in cells, was selected as having hydrocarbon staple(s) at the optimal sequence locations for improving peptide stability for biomarker detection.

actin filaments [2] = assay: Labeling of actin filaments in live C2C12 cells, confocal microscopy; type: cell-based, mouse; conditions: 10 μM, room temperature, 2 hours, then 50 μM chloroquine for 30 minutes
Description: To determine if stabilized peptides can be used to detect biomarkers in live cells, stapled peptide (g) (see FIG. 1, row (g)) was used to label actin filaments in mouse myoblast cells (C2C12 cell line, ATCC® CRL-1772™). Initially, cells were seeded at a density of 10,000 cells/well in 96 well plates in DMEM media and incubated overnight at 37° C. […] After washing the cells with phosphate-buffered saline (PBS), Hoechst DNA dye was then added to the cells, which were further incubated at room temperature for 30 minutes before being washed again to remove extra dye. Afterwards, confocal microscopy was used to determine the intracellular localization of the fluorescent-tagged stapled peptide.
This technology can be applied for, e.g., to FACS and other fluorescent high-throughput screening methods to for example detect overexpression of biomarkers in fixed and living cells.

actin filaments [3] = assay: Labeling of actin filaments in fixed C2C12 cells, confocal microscopy; type: cell-based, mouse
Description: Stapled peptide (g) was also used to detect actin filaments in fixed C2C12 cells. Cells were seeded in 96 well plates at a density of 10,000 cells/well in DMEM media and incubated overnight at 37° C. The cells were fixed using 4% paraformaldehyde in PBS for 20 minutes and then permeabilized using 0.3% Triton-X100 in PBS for 10 minutes. This was followed by the addition of Hoechst DNA dye to the cells to stain nuclei, and FITC-phalloidin (Acti-stain™ 488 phalloidin, Cat. #PHDG1-A, Cytoskeleton, Inc.) to label F actin. After rinsing the cells with PBS, serial dilutions of each peptide were transferred to the cells, and the cells were incubated at 37° C. for 30 minutes. Confocal microscopy was then used to detect the cellular localization of the stapled peptide (g) fused to a fluorescent tag.

actin [4] = assay: Visualization of actin in U2OS cells with TAMRA- and biotin-labeled stapled peptides; type: cell-based
actin [5] = assay: Actin visualization in fixed murine tissues; type: cell-based, mouse; conditions: fixed murine heart, lower extremity and tongue, FIG. 5
actin [6] = assay: Labeling of actin in live zebrafish, confocal microscopy; type: in vivo; conditions: 10 μM, room temperature, 2 hours, then 50 μM chloroquine for 30 minutes; skin; FIG. 9
Description: In a further application, a lead TAMRA-labeled stapled actin-binding peptide was incubated with live zebrafish (10 μM, room temperature, 2 hours), followed by treatment with 50 μM chloroquine for 30 minutes to achieve complete endosomal release and was immediately imaged by confocal microscopy (FIG. 9).

Question: How did the “period of time over which actin binding is retained, as determined by fluorescence in cells” value (actin filaments [1]) turn out when “peptide (f): hydrocarbon-stapled Abp140 N-terminal 17-mer, TAMRA-tagged; selected as most stable stapled peptide marker for actin ([Nle]GVADLIKKFE[S5]ISK[S5]EK(TAMRA); staple 12-16)” was run?
Answer: exhibited actin binding for the longest period of time

Question: With “peptide (g): peptide (f) with a serine to alanine substitution (S14A); Lysine(TAMRA)-tagged stapled actin-binding peptide ([Nle]GVADLIKKFE[S5]IAK[S5]EK(TAMRA); staple 12-16)” as the substance, how does the “cell entry and labeling of actin filaments in live cells” value (actin filaments [2]) read?
Answer: entered live cells and selectively bound to and labeled actin filaments

Question: What about the “labeling of actin filaments in fixed cells” value (actin filaments [3]; C2C12 cells fixed with 4% paraformaldehyde, permeabilized with 0.3% Triton-X100, confocal microscopy) of the same substance?
Answer: selectively bound to and labeled actin filaments

Question: And the “co-localization with the FITC-phalloidin-labeled actin filament network” value (actin filaments [3]; fixed C2C12 cells)?
Answer: co-localized with the actin filament network

Question: And the “actin detection in U2OS cells, direct fluorescence detection” value (actin [4]; TAMRA label, FIG. 4A)?
Answer: robust actin detection was observed

Question: What about the “actin visualization in mouse tissues” value (actin [5]) of the same substance?
Answer: robust actin visualization in heart, lower extremity, and tongue specimens

Question: And the “labeling of actin in live zebrafish” value (actin [6])?
Answer: can label actin in the skin of live zebrafish

Question: How did the “actin detection in U2OS cells, indirect detection with fluorescently-labeled streptavidin” value (actin [4]; biotin label, fixed cells, FIG. 4B) turn out when “(h): stapled actin-binding peptide with alanine substitution and Lysine(Biotin) ([Nle]GVADLIKKFE[S5]IAK[S5]EK(Biotin); staple 12-16; not fully specified)” was run?
Answer: robust actin detection was observed
